Reference: patent publication US9198892B2, “Composition and/or method for preventing onset and/or recurrence of cardiovascular events” (MOCHIDA PHARMACEUTICAL CO., LTD., priority 2005, dated 2015)

What was measured:
[1] = oral 600 mg three times a day immediately after meals (up to 900 mg when serum TG is abnormal); cited from earlier work
[2] = Serum lipid concentration in the five-year EPA-E trial; format: in vivo, human
Experimental: (§1) The observation was conducted by a large scale randomized unblinded controlled trial of the EPA-E group (9,326 cases) and the control group (9,319 cases). The patients were randomized into the groups at the beginning of the trial so that no significant difference is found between the groups in the background factors of the patients, namely, age, sex ratio, history and complication, type and proportion of the HMG-CoA RI, serum lipid concentration, and the like. The patients of both groups were under nutritional counseling, and HMG-CoA RI was administered to them as a base drug.
(§2) Epadel (Mochida Pharmaceutical Co., Ltd.) was orally administered as EPA-E typically at an adult dose of 600 mg after the meal three times a day. In the case of abnormal serum TG, however, the dose could be increased to 900 mg per administration and three times a day.
(§3) Pravastatin sodium (Mevalotin tablets and fine granules, Sankyo Co., Ltd.), simvastatin (Lipovas tablets, Banyu Pharmaceutical Co., Ltd.), or atorvastatin calcium hydrate (Lipitor tablets, Astellas Pharma Inc. and Pfizer) was used for the HMG-CoA RI, and these drugs were orally administered according to the predetermined dosage regimen.
For five years from before the start of the trial to the end of the trial, the concentration of the serum lipid (T-Cho, HDL-Cho, and TG) was periodically measured, and LDL-Cho was calculated by the equation of T-Cho-HDL-Cho-(TG/5). In addition, onset of cardiovascular events (cardiovascular death (fatal myocardial infarction and sudden cardiac death), nonfatal myocardial infarction, cardiovascular angioplasty, new onset of rest angina or effort angina, and destabilization of angina pectoris (hospitalization and cardiovascular angioplasty)) was observed.

[3] = Five-year large scale randomized unblinded controlled trial of EPA-E: onset of cardiovascular events; format: in vivo, human; details: five years; for incidence rate of the cardiovascular events / Cases with the cardiovascular events/all cases: EPA-E group
Experimental: as §1
The data was collected from […] participant patients by about 4,900 participant physicians in about 2,900 participant facilities with sufficient case number, randomization, and the strictness required for the controlled trial. For example, in choosing the participant patients, the serum T-Cho concentration was measured twice at an interval of two to four weeks except for the cases where the patients underwent an adequate nutritional consulting with high compliance and the cases where the fasting blood was collected after cessation of the antilipidemic drug, in which the measurement was conducted only once. While untreated patients were preferable, in the case of patients who had been taking an antilipidemic drug for more than six months at the start of the trial, four weeks of drug holidays (eight weeks in the case of probucol) were given. Patients who were administered with the antilipidemic drug for six months or less at the start of the trial were admitted in the trial with no drug holiday, and when the drug was HMG-CoA RI, its administration was continued while other drugs were changed to HMG-CoA RI.
In order to exclude cardiovascular events in the unstable period after the onset of myocardial infarction and cardiovascular events such as restenosis in the unstable period which is conceived to be caused by the angioplasty itself, the patients at or within six months after the acute myocardial infarction and patients at or within six months after the cardiovascular angioplasty were excluded from the trial subjects, and only patients who are beyond six months after such events and who are conceived to be in the stable period were included in the trial. In addition, patients who are inadequate for the examination of the action of preventing the onset of cardiovascular events for a long time which is the object of this trial, for example, patients of unstable angina pectoris, patients with history or complication of serious heart diseases (such as severe arrhythmia, heart failure, cardiomyopathy, valvular disease, and congenital heart disease), patients at or within six months from the onset of cerebrovascular disorder, and patients with complication of serious liver disease or kidney disease, as well as the patients whose participation was judged to be inappropriate by the attending physician were excluded from the trial.
as §2, §3
For five years from before the start of the trial to the end of the trial, the concentration of the serum lipid (T-Cho, HDL-Cho, and TG) was periodically measured, and LDL-Cho was calculated by the equation of T-Cho-HDL-Cho-(TG/5). […]

[4] = two-year administration after PTCA; cited from earlier work
[5] = oral, cited from earlier work
[6] = EPA-E group with HMG-CoA RI, five years
[7] = Cardiovascular angioplasty history: No
[8] = Cardiovascular angioplasty history: Yes
[9] = Myocardial Infarction history: No
[10] = Myocardial Infarction history: Yes

SMILES: CC/C=C\C/C=C\C/C=C\C/C=C\C/C=C\CCCC(=O)OCC [EPA-E, ethyl icosapentate]
- serum T-Cho concentration reduced [1]: 3-6%
- serum HDL-Cho concentration [2, 6]: no significant change
- serum TG concentration [2, 6]: decreased
- serum LDL-Cho concentration ([2]; EPA-E group with HMG-CoA RI, five years, LDL-Cho calculated): decreased
- serum T-Cho concentration ([2]; EPA-E group with HMG-CoA RI, observation period of five years): decreased
- decrease in the serum TG concentration, EPA-E group versus control group ([2]; five years): more significant
- Odds ratio (incidence rate of the EPA-E group)/(incidence rate of the control group) ([3]; All Cases): 0.808
- Odds ratio (EPA-E group/control group) [3, 7]: 0.862
- Odds ratio (EPA-E group/control group) [3, 8]: 0.671
- incidence rate of the cardiovascular events [3, 7]: (2.10) %
- Cases with the cardiovascular events/all cases [3, 8]: 77/533
- incidence rate of the cardiovascular events [3, 8]: (14.45) %
- incidence rate of the cardiovascular events [3, 9]: (2.05) %
- Cases with the cardiovascular events/all cases [3, 10]: 82/548
- incidence rate of the cardiovascular events [3, 10]: (14.96) %
- Odds ratio (EPA-E group/control group) [3, 9]: 0.811
- Odds ratio (EPA-E group/control group) [3, 10]: 0.744
- reduction of the incidence rate of the cardiovascular events compared to the control group ([3]; all cases): about 19%
- decrease of the incidence rate of the cardiovascular events compared to the control group ([3]; patients with history of cardiovascular angioplasty): about 33%
- decrease of the incidence rate of the cardiovascular events compared to the control group ([3]; patients with history of myocardial infarction): about 26%

SMILES: CC[C@H](C)C(=O)O[C@H]1C[C@H](O)C=C2C=C[C@H](C)[C@H](CC[C@@H](O)C[C@@H](O)CC(=O)O)[C@H]21 [pravastatin sodium]
- restenosis rate [4]: reduced the restenosis rate
- serum HDL-Cho concentration increased ([5]; average 4.9 years): 5%
- serum LDL-Cho concentration decreased ([5]; average 4.9 years): 26%
- serum TG decreased ([5]; average 4.9 years): 12%
- total incidence rate of nonfatal myocardial infarction and cardiovascular death decreased ([5]; average 4.9 years): 31%
- serum T-Cho concentration decreased ([5]; average period of 4.9 years, male hyperlipidemia patients with no history of myocardial infarction): 20%
